The subject of this test is P388 leukemia. The test can be described thus: NCI tumour cell line growth inhibition, 48 h.

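1) Cells in 96-well plates. 2) Compound, 48 h, 5 concentrations. 3) Linear interpolation between surrounding doses. 4) Unreached endpoint = highest concentration. TGI denotes the concentration required for complete inhibition of growth.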 Bounds are passed on as bounds.

Turning to `CN(N=O)C(=O)N[C@@H](C=O)[C@@H](O)[C@H](O)[C@H](O)CO`, the TGI is > 504 µM.

The values above are taken from PubChem BioAssay (NCI).
